Patent US10807951B2, “mTORC1 modulators” (THE REGENTS OF THE UNIVERSITY OF CALIFORNIA, priority 2017, dated 2020)
“Also recorded” adds a separate entry of the source.

What was measured:
[1] = target: T1, Lamtor (a.k.a. Ragulator) and Rag GTPase protein complexes (Homo sapiens, UniProt O43504); experiment: Visual-IP of Rag GTPase binding to bead-bound Lamtor (Ragulator); details: for disruption of Rag GTPase-Lamtor interaction (Visual IP): in vitro, GFP-RagB on RFP-Ragulator beads, 50 μM compound in small-scale screens
T1 construct: RFP (on the Ragulator complex); GST (large-scale screen); on the Ragulator complex; made in house; host or cells: HEK293T (small-scale screen), HEK293F (large-scale screen), transient transfection
Description: To assay for mTORC1-inhibiting compounds, we in vitro-reconstituted the interaction between the Lamtor (a.k.a. Ragulator) and Rag GTPase protein complexes, which are essential for amino acid-driven mTORC1 recruitment (and thus activation) to the lysosome (24, 30, 36, 37). We sequentially coated agarose beads with RFP-tagged Ragulator and with GFP-tagged Rag GTPases, resulting in Rag binding to the beads via their interaction with Lamtor. This method, which we call ‘Visual co-immunoprecipitation’ (Visual-IP) is essentially a binding reaction at equilibrium, in which the interaction between the two binding partners can be easily scored as color overlap between the bead-bound, red-tagged Lamtor and the soluble, green-fluorescent Rag GTPases. Interaction between the two proteins results in red-green color overlap (‘yellow beads’), whereas when the interaction is disrupted, partial or complete dispersion of the green signal in the surrounding buffer is observed (‘red beads’) (FIG. 1A and FIG. 1B). This assay could easily be scaled up and implemented in 384-well plates, which were imaged with the aid of an automated fluorescence microscope (FIG. 1C).
HEK293T cells were plated on 15 cm plates at 10 million cells per plate. 24 hours later, the cells were transfected using 500 μL OptiMEM transfection media, 60 μL polyethyleneimine (PEI, Sigma) and 10 μg total DNA. The transfection mix was incubated for 15 minutes and then added directly to the cell media. 48 hours later, the media was removed, and the cells were washed three times with PBS. The cells were scraped from the plate and collected in 10 mL PBS. The samples were centrifuged for 5 minutes at 1500 g at 4° C. The cell pellets were then resuspended in 1 mL Triton lysis buffer (1% Triton X-100, 130 mM NaCl, 2 mM EGTA, 2.5 mM MgCl2, 25 mM HEPES, pH 7.4, 10% glycerol, protease inhibitor (Pierce)), and allowed to rotate at 4° C. for 20 minutes. The samples were then centrifuged at 13000 g for 2 minutes, and the supernatant was separated for immunoprecipitation. 50 μL of washed anti-FLAG affinity beads (Sigma) were added to the supernatant and the sample was rotated at 4° C. for 2 hours. After immunoprecipitation, the samples were washed twice in Triton lysis buffer, once in high salt (500 mM NaCl) lyso sucrose buffer, and once in normal salt lyso sucrose buffer (250 mM sucrose, 10 mM KCl, 2 mM EGTA, 2.5 mM MgCl2, 25 mM HEPES, pH 7.4, 10% glycerol, protease inhibitor (Pierce)). Each wash consisted of rotating with the wash buffer for 5 minutes at 4° C. and subsequent centrifugation at 2000 g for 1 minute. For elution off FLAG beads, 3×-FLAG peptide in Phosphate Buffered Saline (PBS) was added to the sample, [RL2] and the sample was allowed to rotate overnight at 4° C. […]

[2] = target: LAMTOR5 (Homo sapiens, UniProt O43504); experiment: Rhodamine labeling with alkyne probe on purified Lamtor-Rag complexes; format: binding; details: excess unlabeled compound
Description: (§1) FIGS. 8A-8B. (FIG. 8A) Structures of CC 2-11 and CC 1-44. CC 2-11 bears an alkyne group on a separate ring from the cysteine-reactive warhead. The presence of the alkyne group enables us to directly label the modified target protein (e.g. Lamtor5) with biotin or rhodamine groups, either in gels or in complex proteomes. […] Thus, CC 2-11 allows precise mapping of the target cysteines as well as accurate identification of the off-targets.
as §1, with “We also synthesized a” for “FIGS. 8A-8B. (FIG. 8A) Structures of”, “1-44 derivative, named” for “2-11 and”, “2-11, which” for “1-44. CC 2-11”, “warhead (FIG. 8A).” for “warhead.”, “will allow” for “allows”

[3] = system: mTOR localization to LAMP2-positive lysosomes; experiment: mTORC1 recruitment assay, immunofluorescence in HeLa cells; format: cell-based; details: 50 μM, 1 h, amino acid stimulation
Method: Next, we sought to determine whether YP 1-44 had expected cellular effects in disrupting the TORC1 complex, recruitment of TORC1 to the lysosome, and TORC1 signaling. We treated Hela cells with YP 1-44 for 1 h with and without amino acid stimulation. […] This finding is consistent with the role of Lamtor as an obligate scaffold not only for mTORC1 but also for the Rag GTPases at the lysosome. […] Thus, our results establish that YP 1-44 abolishes mTORC1 signaling both in vitro and in live cells by preventing mTORC1 localization to the lysosome, and that this action occurs via disruption of the Lamtor-Rag scaffold.
HeLa cells were plated on fibronectin-coated glass coverslips in 6-well plates (35 mm diameter/well), at 300,000-500,000 cells/well. 12-16 hours later, cells were subjected to amino acid depletion for 1 h in the presence of 50 uM compounds or an equivalent volume of DMSO, restimulated with a complete amino acid mix for 10 minutes, and fixed in 4% paraformaldehyde (in PBS) for 15 min at RT. The coverslips were rinsed twice with PBS and cells were permeabilized with 0.1% (w/v) Saponin in PBS for 10 min. […]

displacement of Rag and Lamtor interactions ([1]; 10 μM, dose-responsive) [%]	disruption of Rag GTPase-Lamtor interaction (Visual IP) ([1]; listed as YP1-44)	Compound	disruption of Rag GTPase-Lamtor interaction (Visual IP) [1]	competition of CC 2-11 rhodamine labeling signal [2]	amino acid-induced mTOR localization to LAMP2-positive lysosomes [3]	amino acid-induced mTOR localization to LAMP2-positive lysosomes ([3]; listed as YP1-44)
		C=CC(=O)N1CCc2c(OCc3cc(C(F)(F)F)cc(C(F)(F)F)c3)cccc21 [CC 1-44]	does not; also recorded: did not break the LAMTOR-Rag interaction in vitro	competes		
~50	dispersion of the GFP-RagB signal	C=CC(=O)n1ccc2ccccc21 [YP 1-44]	causes RagB dissociation from Lamtor; also recorded: disrupted the interaction		disrupts amino acid-induced mTOR localization	mTORC1 recruitment fails
